From patent publication US20200392462A1, “METHODS OF FORMING CARDIOMYOCYES” (THE REGENTS OF THE UNIVERSITY OF COLORADO, A BODY CORPORATE, priority 2018, published 2020)

Assay: Inhibitor release study by HPLC
Assay type: physicochemical
Protocol: Inhibitor loading efficiency and release studies: All supernatants after initial loading of inhibitors were stored at −20° C. Supernatants were analyzed by reverse phase high performance liquid chromatography (HPLC). Inhibitor release studies were done sampling particle suspension inhibitor release up to 6 days. Briefly, drug release solution was prepared using 1 mL of 1×PBS, and 1 mL of 1% bovine serum albumin. The lyophilized pSi were suspended at a concentration of 3 mg/mL of drug release solution and incubated at 37° C. with constant stirring. At 1, 3, 5, 12 and every 24 hours thereafter, suspensions were centrifuged and 1 ml drug release solution was taken and replaced with fresh drug release solution. Agilent Zorbax Eclipse Plus C18 (100×4.6 mm, 3.5 um pore particle size) column was used for analysis. Samples flowed through the column at 1.0 ml/min and with a mobile phase consisting of acetonitrile in 0.1% trifluoroacedic acid: H2O in 0.1% trifluoroacedic acid (V/V). Samples were analyzed at 281 nm.

| cumulative release (from pSi, at 144 hours) [%] | cumulative release (from pSi, within the first 24 hours, 37° C., PBS/BSA) [%] | cumulative release (from pSi coated with 5 wt % PLGA 50:50, after 144 hours) [%] | cumulative release (from pSi coated with 5 wt % PLGA 50:50, end of 72 hours) [%] | cumulative release (from pSi coated with 5 wt % PLGA 50:50, within the first 48 hours) [%] | SMILES |
| --- | --- | --- | --- | --- | --- |
| ~100 | 81.1±5.3 | – | – | – | Cc1c[nH]c(-c2cnc(NCCNc3ccc(C#N)cn3)nc2-c2ccc(Cl)cc2Cl)n1 [CHIR99021] |
| – | – | 56.4±7.2 | 40.2±9.1 | 27.8±7.2 | Cc1ccc2nc(NC(=O)CSc3nc4c(c(=O)n3-c3ccccc3)SCC4)sc2c1 [IWP2] |
